System: Gammarus pulex
Test: Targeted metabolite profiling (LC-HRMS) of G. pulex after exposure at NOAEL and LOAEL
Format: in vivo
Experimental: Approximately 100 specimens were introduced in a tank containing 1 L of AFW (control), 1 L of AFW spiked with C1 and 1 L of AFW with C2. At three different times (2, 6 and 24 h), 4 replicates of live G. pulex (a pool of 6–7 animals for each replicate) were collected, frozen on dry ice and then stored at − 80 °C before metabolite profiling was performed.
Quantification of pharmaceutical concentrations in G. pulex at the 24 h exposure interval was performed. Separate exposures were set up in triplicate in beakers containing 200 mL of exposure solution (AFW spiked with the respective C1 pharmaceutical dose) and 20 organisms. At 24 h, animals were immediately rinsed with ultra-pure water and then frozen at − 20 °C for 24 h. […] Prior to extraction, frozen G. pulex samples were lyophilised at − 50 °C under vacuum for 48 h and milled in an agate mortar to a fine powder. For each analysis, 20 mg of a lyophilised composite sample were transferred to 2 mL polypropylene tubes (Eppendorf®, Hamburg, Germany), for solid-liquid extraction (SLE). […] Then, samples were shaken for 25 min on a vibration plate (IKA® KS 260 basic) and centrifuged at 14,000 rpm for 25 min at 0 °C. Finally, the supernatant was transferred to a chromatographic vial by using a […] syringe filter (Whatman, GE Healthcare Life Sciences, Buckinghamshire, UK). All samples were stored at − 80 °C until LC-HRMS analysis.
Briefly, 50 mg of lyophilised G. pulex were extracted in 5 mL of acetonitrile and pre-concentrated on Oasis HLB SPE cartridges (6 mL, 200 mg sorbent). The extract was eluted, dried-down and reconstituted in starting LC mobile phase. […] Organic acids, nucleosides, nucleotides, sugars and AAs were measured using LC–HRMS. An Exactive™ mass spectrometer equipped with heated electrospray ionization (H-ESI) source was used (Thermo Fisher Scientific, Bremen, Germany). The system was equipped with a HTC PAL autosampler and a Surveyor MS Plus pump. A TSK Gel-Amide 80 column (2 × 250 mm, 5 μm) for analyte separation was purchased from Sigma Aldrich. Mobile phases were binary mixtures of acetonitrile (A) and 5 mM ammonium acetate (pH 5) in HPLC-grade water (B). […] The flow rate was set at 150 μL min^− 1 and the injection volume was 5 μL. […] Full scan acquisition over a mass range of 80–800 Da was performed at 70,000 full width at half maximum (FWHM) and spray voltage at 3.00 kV, capillary voltage at 30 V, skimmer voltage at 28 V and tube lens voltage at 130 V were used. A sheath gas flow rate of 45 arbitrary units (au), an auxiliary gas flow rate of 10 au and a capillary temperature at 300 °C were selected.
Here, pharmaceutical residue quantification in exposed G. pulex was performed by a 3-point matrix-matched calibration curve. […] The algal amino acid mixture-^13C,^15N (see Table 1) was used as internal standard (IS) for extraction and analytical control. L-ornithine hydrochloride, inosine, thymidine, taurine, 1.7-dimethylxanthine and (−)-riboflavin were quantified using either ^13C,^15N-proline or ^13C,^15N-tyrosine as the internal standard. The remaining 15 compounds were quantified using external calibration and the target compound itself was used as external standard. […] The method detection limit (MDL) was calculated following the same procedure, using spiked lyophilised G. pulex samples at a concentration of 1 μg g^− 1. Intra-assay variation was assessed using five consecutive injections of 5 ng μL^− 1 standard solution, and inter-assay variation was determined by measuring the same standard solution on four different days. […] Recovery studies were performed in triplicate, using lyophilised G. pulex samples spiked at 1 μg g^− 1 with the metabolites mixture and the algal amino acid mixture-^13C, ^15N.

SMILES: Oc1cc(Cl)ccc1Oc1ccc(Cl)cc1Cl [Triclosan]
- (-)-Riboflavin concentration in G. pulex (6h, C2= 0.3 mg/L): 2.6 ± 0.3 µg/g
- ADP concentration in G. pulex (6h, C2= 0.3 mg/L): 28.2 ± 0.3 µg/g
- Cytidine concentration in G. pulex (6h, C2= 0.3 mg/L): 19 ± 7 µg/g
- Hypoxanthine concentration in G. pulex (6h, C2= 0.3 mg/L): 74 ± 18 µg/g
- Inosine concentration in G. pulex (6h, C2= 0.3 mg/L): 23098 ± 627 µg/g
- L-2-amino-n-butyric concentration in G. pulex (6h, C2= 0.3 mg/L): 19.8 ± 2 µg/g
- L-(-)-Proline concentration in G. pulex (6h, C2= 0.3 mg/L): 246 ± 4 µg/g
- L-Alanine concentration in G. pulex (6h, C2= 0.3 mg/L): 784 ± 31 µg/g
- L-Citrulline concentration in G. pulex (6h, C2= 0.3 mg/L): 12.3 ± 1 µg/g
- L-Isoleucine concentration in G. pulex (6h, C2= 0.3 mg/L): 1561 ± 147 µg/g
- L-Leucine concentration in G. pulex (6h, C2= 0.3 mg/L): 353 ± 4 µg/g
- L-Methionine concentration in G. pulex (6h, C2= 0.3 mg/L): 4.6 ± 0.8 µg/g
- L-Phenylalanine concentration in G. pulex (6h, C2= 0.3 mg/L): 233 ± 5 µg/g
- L-Serine concentration in G. pulex (6h, C2= 0.3 mg/L): 168 ± 2 µg/g
- L-Threonine concentration in G. pulex (6h, C2= 0.3 mg/L): 486 ± 8 µg/g
- L-Tryptophan concentration in G. pulex (6h, C2= 0.3 mg/L): 134 ± 10 µg/g
- L-Tyrosine concentration in G. pulex (6h, C2= 0.3 mg/L): 234 ± 2 µg/g
- L-Valine concentration in G. pulex (6h, C2= 0.3 mg/L): 299 ± 18 µg/g
- L-aspartic acid concentration in G. pulex (6h, C2= 0.3 mg/L): 36.1 ± 6 µg/g
- NADH concentration in G. pulex (6h, C2= 0.3 mg/L): 8.1 ± 0.8 µg/g
- Taurine concentration in G. pulex (6h, C2= 0.3 mg/L): 8484 ± 60 µg/g
- Thymidine concentration in G. pulex (6h, C2= 0.3 mg/L): 1163 ± 130 µg/g
- Trehalose concentration in G. pulex (6h, C2= 0.3 mg/L): 251 ± 4 µg/g
- Uridine concentration in G. pulex (6h, C2= 0.3 mg/L): 533 ± 28 µg/g
- (-)-Riboflavin concentration in G. pulex (24h, C1= 0.1 mg/L): 2.4 ± 2 µg/g
- ADP concentration in G. pulex (24h, C1= 0.1 mg/L): 18.7 ± 1 µg/g
- Cytidine concentration in G. pulex (24h, C1= 0.1 mg/L): 19 ± 3 µg/g
- Hypoxanthine concentration in G. pulex (24h, C1= 0.1 mg/L): 95 ± 27 µg/g
- Inosine concentration in G. pulex (24h, C1= 0.1 mg/L): 18957 ± 5084 µg/g
- L-2-amino-n-butyric concentration in G. pulex (24h, C1= 0.1 mg/L): 16.8 ± 5 µg/g
- L-(-)-Proline concentration in G. pulex (24h, C1= 0.1 mg/L): 293 ± 13 µg/g
- L-Alanine concentration in G. pulex (24h, C1= 0.1 mg/L): 810 ± 110 µg/g
- L-Citrulline concentration in G. pulex (24h, C1= 0.1 mg/L): 8.3 ± 0.5 µg/g
- L-Isoleucine concentration in G. pulex (24h, C1= 0.1 mg/L): 1743 ± 224 µg/g
- L-Leucine concentration in G. pulex (24h, C1= 0.1 mg/L): 376 ± 13 µg/g
- L-Methionine concentration in G. pulex (24h, C1= 0.1 mg/L): 7.0 ± 0.3 µg/g
- L-Phenylalanine concentration in G. pulex (24h, C1= 0.1 mg/L): 260 ± 6 µg/g
- L-Serine concentration in G. pulex (24h, C1= 0.1 mg/L): 120 ± 12 µg/g
- L-Threonine concentration in G. pulex (24h, C1= 0.1 mg/L): 600 ± 20 µg/g
- L-Tryptophan concentration in G. pulex (24h, C1= 0.1 mg/L): 72 ± 8 µg/g
- L-Tyrosine concentration in G. pulex (24h, C1= 0.1 mg/L): 307 ± 4 µg/g
- L-Valine concentration in G. pulex (24h, C1= 0.1 mg/L): 398 ± 17 µg/g
- L-aspartic acid concentration in G. pulex (24h, C1= 0.1 mg/L): 82.5 ± 26 µg/g
- NADH concentration in G. pulex (24h, C1= 0.1 mg/L): 7.7 ± 0.1 µg/g
- Taurine concentration in G. pulex (24h, C1= 0.1 mg/L): 12433 ± 2122 µg/g
- Thymidine concentration in G. pulex (24h, C1= 0.1 mg/L): 1718 ± 19 µg/g
- Trehalose concentration in G. pulex (24h, C1= 0.1 mg/L): 251 ± 22 µg/g
- Uridine concentration in G. pulex (24h, C1= 0.1 mg/L): 644 ± 77 µg/g
- (-)-Riboflavin concentration in G. pulex (24h, C2= 0.3 mg/L): 2.6 ± 0.8 µg/g
- ADP concentration in G. pulex (24h, C2= 0.3 mg/L): 29.3 ± 0.8 µg/g
- Cytidine concentration in G. pulex (24h, C2= 0.3 mg/L): 16 ± 3 µg/g
- Hypoxanthine concentration in G. pulex (24h, C2= 0.3 mg/L): 53 ± 10 µg/g
- Inosine concentration in G. pulex (24h, C2= 0.3 mg/L): 36017 ± 80 µg/g
- L-2-amino-n-butyric concentration in G. pulex (24h, C2= 0.3 mg/L): 21.5 ± 2 µg/g
- L-(-)-Proline concentration in G. pulex (24h, C2= 0.3 mg/L): 207 ± 3 µg/g
- L-Alanine concentration in G. pulex (24h, C2= 0.3 mg/L): 673 ± 17 µg/g
- L-Citrulline concentration in G. pulex (24h, C2= 0.3 mg/L): 13.8 ± 2 µg/g
- L-Isoleucine concentration in G. pulex (24h, C2= 0.3 mg/L): 1164 ± 39 µg/g
- L-Leucine concentration in G. pulex (24h, C2= 0.3 mg/L): 299 ± 0.7 µg/g
- L-Methionine concentration in G. pulex (24h, C2= 0.3 mg/L): 3.1 ± 0.9 µg/g
- L-Phenylalanine concentration in G. pulex (24h, C2= 0.3 mg/L): 134 ± 0.5 µg/g
- L-Serine concentration in G. pulex (24h, C2= 0.3 mg/L): 167 ± 15 µg/g
- L-Threonine concentration in G. pulex (24h, C2= 0.3 mg/L): 440 ± 11 µg/g
- L-Tryptophan concentration in G. pulex (24h, C2= 0.3 mg/L): 115 ± 8 µg/g
- L-Tyrosine concentration in G. pulex (24h, C2= 0.3 mg/L): 224 ± 1 µg/g
- L-Valine concentration in G. pulex (24h, C2= 0.3 mg/L): 250 ± 3 µg/g
- L-aspartic acid concentration in G. pulex (24h, C2= 0.3 mg/L): 33.9 ± 11 µg/g
- NADH concentration in G. pulex (24h, C2= 0.3 mg/L): 9.9 ± 0.3 µg/g
- Taurine concentration in G. pulex (24h, C2= 0.3 mg/L): 8468 ± 142 µg/g
- Thymidine concentration in G. pulex (24h, C2= 0.3 mg/L): 396 ± 12 µg/g
- Trehalose concentration in G. pulex (24h, C2= 0.3 mg/L): 378 ± 17 µg/g
- Uridine concentration in G. pulex (24h, C2= 0.3 mg/L): 574 ± 15 µg/g

Reference: paper PMC4912218, “Targeted metabolomics of Gammarus pulex following controlled exposures to selected pharmaceuticals in water” (The Science of the Total Environment, 2016)
